Laboratory results reported in patent US9695155B2, “Herbicidal substituted pyrimidinyloxy benzene compounds” (E. I. DU PONT DE NEMOURS AND COMPANY, priority 2013, dated 2017).

How the values were obtained:
johnsongrass [1] = assay: Test C preemergence; type: in vivo, Sorghum halepense; settings: for Johnsongrass plant response rating: preemergence; for Plant response rating, Johnsongrass: Preemergence, 31 g ai/ha, scale 0 to 100, 0 no effect, 100 complete control
Summary of the method: (§1)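 Visual ratings on a 0–100 scale (100 = complete control) were made versus untreated controls after 13–15 greenhouse days. Chemicals in a surfactant-containing non-phytotoxic solvent were applied either preemergence to seeds in loam–sand soil or postemergence to 1- to 4-leaf plants 2–18 cm tall.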

yellow nutsedge [2] = assay: Test C postemergence; type: in vivo, Cyperus esculentus; settings: for Plant response rating, Nutsedge, Yellow: scale 0 to 100 (0 no effect, 100 complete control)
Summary of the method: as §1

johnsongrass [3] = assay: Test C postemergence; type: in vivo, Sorghum halepense
Summary of the method: as §1

lambsquarters = assay: Test C preemergence; type: in vivo, Chenopodium album; settings: for Lambsquarters plant response rating: preemergence; for Plant response rating, Lambsquarters: Preemergence, 31 g ai/ha, scale 0 to 100, 0 no effect, 100 complete control
Summary of the method: as §1

giant foxtail [4] = assay: Test C preemergence; type: in vivo, Setaria faberii; settings: for Foxtail, Giant plant response rating: preemergence; for Plant response rating, Foxtail, Giant: Preemergence, 31 g ai/ha, scale 0 to 100, 0 no effect, 100 complete control
Summary of the method: as §1

giant foxtail [5] = assay: Test C postemergence; type: in vivo, Setaria faberii
Summary of the method: as §1

large (Lg) crabgrass = assay: Test C preemergence; type: in vivo, Digitaria sanguinalis; settings: for Crabgrass, Large plant response rating: preemergence; for Plant response rating, Crabgrass, Large: Preemergence, 31 g ai/ha, scale 0 to 100, 0 no effect, 100 complete control
Summary of the method: as §1

yellow nutsedge [6] = assay: Test C preemergence; type: in vivo, Cyperus esculentus; settings: for Nutsedge, Yellow plant response rating: preemergence; for Plant response rating, Nutsedge, Yellow: Preemergence, 31 g ai/ha, scale 0 to 100, 0 no effect, 100 complete control
Summary of the method: as §1

waterhemp = assay: Test C postemergence; type: in vivo, Amaranthus rudis; settings: for Plant response rating, Waterhemp: scale 0 to 100 (0 no effect, 100 complete control)
Summary of the method: as §1

Italian ryegrass = assay: Test A preemergence; type: in vivo, Lolium multiflorum; settings: for Plant response rating, Ryegrass, Italian: 125 g ai/ha; for Ryegrass, Italian plant response rating: 500 g ai/ha
Summary of the method: (§2)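 Injury scores run from 0, no effect, to 100, complete control, judged by eye against untreated plants roughly 10 days after treatment. Chemicals carried a surfactant in a non-phytotoxic solvent and went onto loam–sand soil preemergence or onto one- to two-leaf seedlings postemergence.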

galium = assay: Test C preemergence; type: in vivo, Galium aparine; settings: for Galium plant response rating: preemergence; for Plant response rating, Galium: Preemergence, 31 g ai/ha, scale 0 to 100, 0 no effect, 100 complete control
Summary of the method: as §1

giant foxtail [7] = assay: Test A preemergence; type: in vivo, Setaria faberii; settings: for Plant response rating, Foxtail, Giant: 125 g ai/ha; for Foxtail, Giant plant response rating: 500 g ai/ha
Summary of the method: as §2

soybean = assay: Test C postemergence; type: in vivo, Glycine max; settings: for Plant response rating, Soybean: scale 0 to 100 (0 no effect, 100 complete control)
Summary of the method: as §1

chickweed = assay: Test C postemergence; type: in vivo, Stellaria media
Summary of the method: as §1

[8] = 16 g ai/ha, scale 0 to 100 (0 no effect, 100 complete control)
[9] = 62 g ai/ha, scale 0 (no effect) to 100 (complete control)
[10] = 125 g ai/ha, scale 0 (no effect) to 100 (complete control)
[11] = Postemergence, 31 g ai/ha, 13 to 15 days
[12] = 16 g ai/ha, postemergence, visual rating, scale 0 to 100 (0 no effect, 100 complete control), 13 to 15 days
[13] = Postemergence, 31 g ai/ha, scale 0 to 100 (0 no effect, 100 complete control), 13 to 15 days
[14] = Postemergence, 62 g ai/ha, scale 0 to 100 (0 no effect, 100 complete control)
[15] = 0 to 100 scale where 0 is no effect and 100 is complete control
[16] = 0 to 100 scale, 0 no effect, 100 complete control, approx. 10 days
[17] = 16 g ai/ha, postemergence, 0 is no effect, 100 is complete control
[18] = 125 g ai/ha, postemergence, visual rating
[19] = 125 g ai/ha, postemergence, visual rating, scale 0 to 100 (0 no effect, 100 complete control)

N#Cc1cccc(Oc2ncc(Br)cn2)c1-n1cc(I)cn1 [Compound 88]
Johnsongrass plant response rating (johnsongrass [1]; [8]): 0 | Johnsongrass plant response rating (johnsongrass [1]; [9]): 40 | Johnsongrass plant response rating (johnsongrass [1]; [10]): 85 | Plant response rating, Johnsongrass (johnsongrass [1]): 0 | Plant response rating (0 to 100), Nutsedge, Yellow (yellow nutsedge [2]; 125 g ai/ha, postemergence): 10 | Plant response rating, Nutsedge, Yellow (yellow nutsedge [2]; [11]): 5 | Plant response rating, Nutsedge, Yellow (yellow nutsedge [2]; Postemergence, 62 g ai/ha): 10 | Johnsongrass plant response rating (johnsongrass [3]; [12]): 0 | Plant response rating (0 to 100), Johnsongrass (johnsongrass [3]; 125 g ai/ha, postemergence): 10 | Plant response rating, Johnsongrass (johnsongrass [3]; [13]): 0 | Plant response rating, Johnsongrass (johnsongrass [3]; [14]): 5 | Lambsquarters plant response rating (lambsquarters; [8]): 70 | Lambsquarters plant response rating (lambsquarters; [9]): 100 | Lambsquarters plant response rating (lambsquarters; [10]): 100 | Plant response rating, Lambsquarters (lambsquarters): 100 | Foxtail, Giant plant response rating (giant foxtail [4]; [8]): 5 | Foxtail, Giant plant response rating (giant foxtail [4]; [9]): 98 | Foxtail, Giant plant response rating (giant foxtail [4]; [10]): 100 | Plant response rating, Foxtail, Giant (giant foxtail [4]): 65 | Foxtail, Giant plant response rating (giant foxtail [5]; [12]): 20 | Plant response rating (0 to 100), Foxtail, Giant (giant foxtail [5]; 125 g ai/ha, postemergence): 40 | Plant response rating, Foxtail, Giant (giant foxtail [5]; [13]): 35 | Plant response rating, Foxtail, Giant (giant foxtail [5]; [14]): 30 | Crabgrass, Large plant response rating (large (Lg) crabgrass; [8]): 45 | Crabgrass, Large plant response rating (large (Lg) crabgrass; [9]): 100 | Crabgrass, Large plant response rating (large (Lg) crabgrass; [10]): 100 | Plant response rating, Crabgrass, Large (large (Lg) crabgrass): 70 | Nutsedge, Yellow plant response rating (yellow nutsedge [6]; [8]): 0 | Nutsedge, Yellow plant response rating (yellow nutsedge [6]; [9]): 5 | Nutsedge, Yellow plant response rating (yellow nutsedge [6]; [10]): 5 | Plant response rating, Nutsedge, Yellow (yellow nutsedge [6]): 0 | Plant response rating (0 to 100), Waterhemp (waterhemp; 125 g ai/ha, postemergence): 90 | Plant response rating, Waterhemp (waterhemp; [11]): 75 | Plant response rating, Waterhemp (waterhemp; Postemergence, 62 g ai/ha): 85 | Plant response rating, Ryegrass, Italian (Italian ryegrass; [15]): 20 | Ryegrass, Italian plant response rating (Italian ryegrass; [16]): 30 | Galium plant response rating (galium; [8]): 0 | Galium plant response rating (galium; [9]): 90 | Galium plant response rating (galium; [10]): 80 | Plant response rating, Galium (galium): 50 | Plant response rating, Foxtail, Giant (giant foxtail [7]; [15]): 100 | Foxtail, Giant plant response rating (giant foxtail [7]; [16]): 100 | Plant response rating (0 to 100), Soybean (soybean; 125 g ai/ha, postemergence): 65 | Plant response rating, Soybean (soybean; [11]): 65 | Plant response rating, Soybean (soybean; Postemergence, 62 g ai/ha): 95 | Chickweed plant response rating (chickweed; [12]): 5 | Plant response rating (0 to 100), Chickweed (chickweed; 125 g ai/ha, postemergence): 90 | Plant response rating, Chickweed (chickweed; [13]): 15 | Plant response rating, Chickweed (chickweed; [14]): 20

Clc1cnc(Oc2cccc(Br)c2-n2cc(Br)nn2)nc1 [Compound 129]
Johnsongrass plant response rating (johnsongrass [1]; [8]): 0 | Johnsongrass plant response rating (johnsongrass [1]; [9]): 40 | Johnsongrass plant response rating (johnsongrass [1]; [10]): 90 | Plant response rating, Johnsongrass (johnsongrass [1]): 10 | Plant response rating (0 to 100), Nutsedge, Yellow (yellow nutsedge [2]; [17]): 0 | Plant response rating, Nutsedge, Yellow (yellow nutsedge [2]; [18]): 10 | Plant response rating, Nutsedge, Yellow (yellow nutsedge [2]; Postemergence, 62 g ai/ha): 5 | Plant response rating (0 to 100), Johnsongrass (johnsongrass [3]; [17]): 5 | Plant response rating, Johnsongrass (johnsongrass [3]; [19]): 5 | Plant response rating, Johnsongrass (johnsongrass [3]; [14]): 5 | Lambsquarters plant response rating (lambsquarters; [8]): 50 | Lambsquarters plant response rating (lambsquarters; [9]): 100 | Lambsquarters plant response rating (lambsquarters; [10]): 100 | Plant response rating, Lambsquarters (lambsquarters): 40 | Foxtail, Giant plant response rating (giant foxtail [4]; [8]): 0 | Foxtail, Giant plant response rating (giant foxtail [4]; [9]): 100 | Foxtail, Giant plant response rating (giant foxtail [4]; [10]): 100 | Plant response rating, Foxtail, Giant (giant foxtail [4]): 80 | Plant response rating (0 to 100), Foxtail, Giant (giant foxtail [5]; [17]): 5 | Plant response rating, Foxtail, Giant (giant foxtail [5]; [19]): 10 | Plant response rating, Foxtail, Giant (giant foxtail [5]; [14]): 5 | Crabgrass, Large plant response rating (large (Lg) crabgrass; [8]): 75 | Crabgrass, Large plant response rating (large (Lg) crabgrass; [9]): 100 | Crabgrass, Large plant response rating (large (Lg) crabgrass; [10]): 100 | Plant response rating, Crabgrass, Large (large (Lg) crabgrass): 95 | Nutsedge, Yellow plant response rating (yellow nutsedge [6]; [8]): 0 | Nutsedge, Yellow plant response rating (yellow nutsedge [6]; [9]): 5 | Nutsedge, Yellow plant response rating (yellow nutsedge [6]; [10]): 25 | Plant response rating, Nutsedge, Yellow (yellow nutsedge [6]): 0 | Plant response rating (0 to 100), Waterhemp (waterhemp; [17]): 65 | Plant response rating, Waterhemp (waterhemp; [18]): 85 | Plant response rating, Waterhemp (waterhemp; Postemergence, 62 g ai/ha): 65 | Plant response rating, Ryegrass, Italian (Italian ryegrass; [15]): 10 | Ryegrass, Italian plant response rating (Italian ryegrass; [15]): 30 | Galium plant response rating (galium; [8]): 50 | Galium plant response rating (galium; [9]): 95 | Galium plant response rating (galium; [10]): 100 | Plant response rating, Galium (galium): 80 | Plant response rating, Foxtail, Giant (giant foxtail [7]; [15]): 100 | Foxtail, Giant plant response rating (giant foxtail [7]; [15]): 100 | Plant response rating (0 to 100), Soybean (soybean; [17]): 35 | Plant response rating, Soybean (soybean; [18]): 60 | Plant response rating, Soybean (soybean; Postemergence, 62 g ai/ha): 85 | Plant response rating (0 to 100), Chickweed (chickweed; [17]): 50 | Plant response rating, Chickweed (chickweed; [19]): 55 | Plant response rating, Chickweed (chickweed; [14]): 70
